“Also recorded” adds a separate entry of the source.
How the values were obtained:
[1] = system: classic trigeminal neuralgia; conditions: patients with classic trigeminal neuralgia; cited from earlier work
migraine [2] = conditions: cited from earlier work
[3] = Ongoing long-term safety study of rimegepant; type: in vivo, human; conditions: 75 mg dose; preliminary data
[4] = system: refractory atypical trigeminal neuralgia; experiment: Case study: oral rimegepant in one patient with refractory atypical trigeminal neuralgia; type: in vivo, human; design: key to Barrow Neurological Institute (BNI) pain intensity score: II: defined as no pain on medication; conditions: for adverse effects / tolerability / treatment efficacy in words: treatment period of six months
Text: In this study, refractory atypical trigeminal neuralgia was successfully treated using rimegepant, a novel oral calcitonin gene-related peptide (CGRP) antagonist. The patient experienced a decrease in pain from seven to nine out of 10 to 0 out of 10 within one day of therapy initiation. […] Thus, this case illustrates the promise of CGRP antagonist therapy as a novel treatment for trigeminal neuralgia, including atypical trigeminal neuralgia.
A person with a 5-year history of TN presented with episodic sharp, stabbing and constant burning pain along the V2 nerve distribution. Their pain was triggered by sensation on their upper right teeth, including wind, mastication, and extreme-temperature fluids. Their self-reported pain score ranged from seven to nine out of 10, and their Barrow Neurological Institute (BNI) pain intensity score was rated IV out of V, defined as inadequate pain control with medication. At presentation, their pain regimen consisted of 300 mg oxcarbazepine per day, up to eight 15 mg tablets of oxycodone per day, and 10 mcg per hour transdermal buprenorphine patch. On neurological exam, sensation was intact to light touch bilaterally except along the right nasolabial fold, and grimace was symmetric. The patient experienced impairment in ability to perform daily activities, such as eating, working, and speaking. Other associated symptoms included headache, fatigue, and significant weight loss.
Prior to presentation, the patient unsuccessfully tried several medications for pain control, including oxcarbazepine, meperidine, carisoprodol, propranolol, pregabalin, sumatriptan, and ergot. They also failed medical cannabinoids, oxygen therapy, trigger point injections, and sphenopalatine nerve blockades. They underwent four surgical procedures at outside institutions, including Gamma Knife radiosurgery (37 months prior to presentation), right balloon rhizotomy (31 months prior to presentation), radiofrequency ablation (22 months prior to presentation), and a V2-3 radiofrequency rhizotomy (14 months prior to presentation).
Given their sharp/stabbing pain, we offered them a microvascular decompression (MVD).
After multiple trials of different medications for six years after their MVD, the patient was started on 75 mg of rimegepant per day. Within 12 hours of their first dose, their self-reported pain score improved to 0 out of 10. […] They rarely had mild (2 out of 10) pain, which was controlled with 1 mg buprenorphine. Their BNI pain intensity score was reduced to II, defined as no pain on medication.

migraine [5] = experiment: Three double-blind, placebo-controlled BHV-3000 migraine studies; type: in vivo, human; conditions: 75 mg dose
trigeminal neuralgia = conditions: cited from earlier work
[6] = acute migraine treatment trial, fast-dissolve orally disintegrating tablet (ODT) formulation
[7] = 75 mg per day, listed as Rimegepant

## NC(=O)N1c2ccccc2CC(=O)c2ccccc21 [oxcarbazepine]
[1]
  response rates with initial therapy: approximately 70%

## N[C@@H]1c2cccnc2[C@H](OC(=O)N2CCC(n3c(=O)[nH]c4ncccc43)CC2)CC[C@H]1c1cccc(F)c1F [rimegepant, (5S,6S,9R)-5-amino-6-(2,3-difluorophenyl)-6,7,8,9-tetrahydro-5H-cyclohepta[b]pyridine-9-yl-4-(2-oxo-2,3-dihydro-1H-imidazo[4,5-b]pyridine-1-yl)piperidine-1-carboxylate]
Migraine [2]; [6]
  time postdose at which statistically significant benefit for pain relief was demonstrated: 60 min
  time postdose at which statistically significant benefit on achieving pain freedom was demonstrated: 90 min
Migraine [2]; migraine trials
  safety profile in words: favorable safety profile
Migraine [2]; orally administered, preventive and acute treatment
  efficacy in migraine in words: proven efficacy in the preventive and acute treatment of migraine
[3]
  tolerability in words: well tolerated
[4]; 75 mg of rimegepant per day
  time after first dose until self-reported pain score improved to 0 out of 10: ≤ 12 h
[4]; 75 mg of rimegepant per day, within 12 hours of first dose, before treatment seven to nine out of 10
  self-reported pain score: 0 out of 10
[4]; on 75 mg rimegepant per day, before treatment IV out of V
  Barrow Neurological Institute (BNI) pain intensity score: II
[4]; oral rimegepant
  time after therapy initiation until pain decreased to 0 out of 10: one
[4]; patient-reported, six-month treatment period
  mood and cognition: drastic improvement in mood and cognition
[4]; six-month treatment period, 75 mg per day, controlled with 1 mg buprenorphine
  rare mild pain during treatment: 2 out of 10
[4]; 75 mg per day
  adverse effects / tolerability: no significant adverse effects
  treatment efficacy in words: continues to be efficacious; also recorded: mostly had no pain
[4]; [7]
  adverse effects / tolerability: well tolerated
  treatment efficacy in words: maintains efficacy over a period of six months
[4]; 75 mg per day, listed as rigemepant
  adverse effects / tolerability: lack of adverse effects
[4]; within one day of therapy initiation, before treatment seven to nine out of 10
  pain: 0 out of 10
Migraine [5]
  efficacy for the treatment of migraine in words: effective

## NC(=O)N1c2ccccc2C=Cc2ccccc21 [carbamazepine]
[1]
  response rates with initial therapy: approximately 70%

B1: erenumab: an injected anti-CGRP monoclonal antibody (antibody, chains of the INN, looked up, V domains shown)
VH: QVQLVESGGGVVQPGRSLRLSCAASGFTFSSFGMHWVRQAPGKGLEWVAVISFDGSIKYSVDSVKGRFTISRDNSKNTLFLQMNSLRAEDTAVYYCARDRLNYYDSSGYYHYKYYGMAVWGQGTTVTVSS
VL: QSVLTQPPSVSAAPGQKVTISCSGSSSNIGNNYVSWYQQLPGTAPKLLIYDNNKRPSGIPDRFSGSKSGTSTTLGITGLQTGDEADYYCGTWDSRLSAVVFGGGTKLTVL
Trigeminal neuralgia; in vivo
  patients reporting constipation and/or injection site reaction: three
  side effects in words: minimal
Trigeminal neuralgia; injected erenumab
  patients with significant decrease in trigeminal neuralgia pain: nine
Trigeminal neuralgia; of 10 patients treated with erenumab
  patients reporting complete pain resolution: five

Reference: patent US20240366618A1, “CGRP Antagonists for Treating Trigeminal Neuralgia” (Pfizer Ireland Pharmaceuticals, priority 2021, published 2024)
